Reference: PMC9661473
Values belong to the molecule of their own block, whether it stands above or below them. Where a SMILES comes first, the peptide text is derived from it.

Legend:
[1] = system: DNA TA (DNA, aptamer) GGTTGGTGTGGTTGG; assay: microscale thermophoresis, Hill fit; settings: 100 mM KCl; 25 mM PBS, pH 7.05, 25 °C, 200 nM aptamer
[2] = system: 2N3M (DNA, aptamer) TGGTGGTGGTTGTTGTGGTGGTGGTGGT; assay: microscale thermophoresis; settings: 100 mM KCl; 25 mM potassium phosphate, pH 7.05, 25 °C, 200 nM aptamer
[3] = system: DNA TA (DNA, aptamer) GGTTGGTGTGGTTGG; assay: microscale thermophoresis; settings: 100 mM KCl; 25 mM PBS, pH 7.05, 25 °C, 200 nM aptamer
[4] = system: 2N3M (DNA, aptamer) TGGTGGTGGTTGTTGTGGTGGTGGTGGT; assay: microscale thermophoresis, Hill fit; settings: 100 mM KCl; 25 mM potassium phosphate, pH 7.05, 25 °C, 200 nM aptamer
[5] = system: RNA TA (RNA, aptamer) GGUUGGUGUGGUUGG; assay: microscale thermophoresis, Hill fit; settings: 100 mM KCl; 25 mM PBS, pH 7.05, 40 °C, 200 nM aptamer
[6] = system: DNA TA (unlabeled, NMR) (DNA, aptamer) GGTTGGTGTGGTTGG; assay: 1H 1D and 2D NOESY NMR; settings: 100 mM KCl; 25 mM potassium phosphate, pH 7.4, 298 K, 10% D2O, 500 μM DNA, 2 equiv YER
[7] = target: T1, RYE tripeptide (thrombin loop fragment) (UniProt P00734 433-435); assay: MST; 100 mM KCl, 25 C; MST: 200 nM FAM-oligo; 25 mM PBS pH 7.05, 100 mM KCl (DNA TA 25 C, RNA TA 40 C) or 25 mM K-phosphate pH 7.05, 100 mM KCl (2N3M, 25 C), Hill fit; NMR: 500 uM DNA TA, 25 mM K-phosphate pH 7.4, 100 mM KCl, 10% D2O, 298 K; settings: label: 5'-FAM; intramolecular G-quadruplex
T1 chain: RYE

[8] = target: T2, YER tripeptide (thrombin loop fragment) (UniProt P00734 434-436); assay: as above; settings: label: 5'-FAM; intramolecular G-quadruplex
T2 chain: YER

[9] = target: T3, ER dipeptide (UniProt P00734 435-436); assay: as above; settings: label: 5'-FAM; intramolecular G-quadruplex
T3 chain: ER

[10] = target: T4, ERN tripeptide (thrombin loop fragment) (UniProt P00734 435-437); assay: as above; settings: label: 5'-FAM; intramolecular G-quadruplex
T4 chain: ERN

[11] = target: T5, YE dipeptide (UniProt P00734 434-435); assay: as above; settings: label: 5'-FAM; intramolecular G-quadruplex
T5 chain: YE

[12] = target: T2, YER tripeptide (thrombin loop fragment); assay: MST; 100 mM KCl, 40 C; MST: 200 nM FAM-oligo; 25 mM PBS pH 7.05, 100 mM KCl (DNA TA 25 C, RNA TA 40 C) or 25 mM K-phosphate pH 7.05, 100 mM KCl (2N3M, 25 C), Hill fit; NMR: 500 uM DNA TA, 25 mM K-phosphate pH 7.4, 100 mM KCl, 10% D2O, 298 K; settings: label: 5'-FAM; intramolecular G-quadruplex (modelled)
[13] = target: T6, QET tripeptide (RET analogue) (UniProt P19338 604-606, R604Q); assay: MST; 100 mM KCl, 25 C; MST: 200 nM FAM-oligo; 25 mM PBS pH 7.05, 100 mM KCl (DNA TA 25 C, RNA TA 40 C) or 25 mM K-phosphate pH 7.05, 100 mM KCl (2N3M, 25 C), Hill fit; NMR: 500 uM DNA TA, 25 mM K-phosphate pH 7.4, 100 mM KCl, 10% D2O, 298 K; settings: label: 5'-FAM; intramolecular G-quadruplex
T6 chain: QET

[14] = target: T7, REV tripeptide (RET analogue) (UniProt P19338 604-606, T606V); assay: as above; settings: label: 5'-FAM; intramolecular G-quadruplex
T7 chain: REV

[15] = target: T8, RET tripeptide (nucleolin loop fragment) (UniProt P19338 604-606); assay: as above; settings: label: 5'-FAM; intramolecular G-quadruplex
T8 chain: RET

Molecule: C[C@@H](O)[C@H](N)C(=O)O
binding [2]: no

Molecule: N[C@@H](Cc1ccc(O)cc1)C(=O)O
binding [3]: no

Molecule: N[C@@H](CCC(=O)O)C(=O)O
binding [2]: no
binding [3]: no

Molecule: N[C@@H](Cc1ccc(O)cc1)C(=O)N[C@@H](CCC(=O)O)C(=O)O (H-Tyr-Glu-OH)
binding [3]: no

B1: DNA TA (FAM) (structured_DNA)
DNA: GGTTGGTGTGGTTGG
Kd [7]: 52 ± 5 µM
Kd [8]: 5 ± 1 µM
binding result [9]: no binding
Kd [10]: 12 ± 1 µM
binding result [11]: no binding

B2: RNA TA (FAM) (structured_RNA)
RNA: GGUUGGUGUGGUUGG
Kd [12]: 37 ± 9 µM

B3: 2N3M (AS1411 derivative, FAM) (structured_DNA)
DNA: TGGTGGTGGTTGTTGTGGTGGTGGTGGT
binding result [13]: no binding
binding result [14]: no binding
Kd [15]: 0.1 ± 0.02 µM

Second part, led by results:

Kd [1]: 52 ± 5 µM
Molecule: N=C(N)NCCC[C@H](N)C(=O)N[C@@H](Cc1ccc(O)cc1)C(=O)N[C@@H](CCC(=O)O)C(=O)O (H-Arg-Tyr-Glu-OH)

Kd [1]: 12 ± 1 µM
Molecule: N=C(N)NCCC[C@H](NC(=O)[C@@H](N)CCC(=O)O)C(=O)N[C@@H](CC(N)=O)C(=O)O (H-Glu-Arg-Asn-OH)

binding [2]: no
Molecule: CC(C)[C@H](NC(=O)[C@H](CCC(=O)O)NC(=O)[C@@H](N)CCCNC(=N)N)C(=O)O (H-Arg-Glu-Val-OH)

binding [3]: no
Molecule: NC(N)=NCCC[C@H](NC(=O)[C@H](CCC(=O)O)NC(=O)[C@@H](N)Cc1ccccc1)C(=O)O (H-Phe-Glu-Arg-OH)

Kd [4]: 0.1 ± 0.02 µM
Molecule: C[C@@H](O)[C@H](NC(=O)[C@H](CCC(=O)O)NC(=O)[C@@H](N)CCCNC(=N)N)C(=O)O (H-Arg-Glu-Thr-OH)

binding [2]: no
Molecule: C[C@@H](O)[C@H](NC(=O)[C@H](CCC(=O)O)NC(=O)[C@@H](N)CCC(N)=O)C(=O)O (H-Gln-Glu-Thr-OH)

binding [3]: no
Molecule: NCCCC[C@H](NC(=O)[C@H](CCC(=O)O)NC(=O)[C@@H](N)Cc1ccc(O)cc1)C(=O)O (H-Tyr-Glu-Lys-OH)

binding [2]: no
binding [3]: no
Molecule: N=C(N)NCCC[C@H](N)C(=O)O

binding [3]: no
Molecule: N=C(N)NCCC[C@H](NC(=O)[C@@H](N)CCC(=O)O)C(=O)O (H-Glu-Arg-OH)

Kd [5]: 37 ± 9 µM
Kd [1]: 5 ± 1 µM
Molecule: N=C(N)NCCC[C@H](NC(=O)[C@H](CCC(=O)O)NC(=O)[C@@H](N)Cc1ccc(O)cc1)C(=O)O (H-Tyr-Glu-Arg-OH)
binding [6]: yes
